Assay results reported in US20060079534A1, “Cell division inhibitor and a production method thereof” (priority 2000, published 2006).
Values after ≈ are worked out from the molar mass of the structure shown.

Key:
[1] = tested on: cleavage division of Hemicentrotus pulcherrimus; test: Inhibition test for cell division (cleavage division); format: in vivo; settings: observed 4 hours after fertilization; * = no activity at the indicated concentration
Procedure: (§1) Physiological activity of each dehydrodiketopiperazine will be described below. Each dehydrodiketopiperazine was tested for its inhibitory activity against cleavage division of Hemicentrotus pulcherrimus, Scaphechinus mirabilis and Temnopleurus toreumaticus as a cell division inhibitory activity. The test was carried out as described in The Journal of Antibiotics, Vol. 52, p. 1017 (1999). However, stages at which the first cleavage division occurs vary among sea urchins, so that inhibition of the cleavage division was observed after 4 hours of fertilization in the tests using Hemicentrotus pulcherrimus and Scaphechinus mirabilis, and after one hour of fertilization in the test using Temnopleurus toreumaticus, respectively.

[2] = tested on: cleavage division of Scaphechinus mirabilis; test: as above; format: in vivo; settings: observed 4 hours after fertilization; * = no activity at the indicated concentration
Procedure: as §1

[3] = tested on: cleavage division of Temnopleurus toreumaticus; test: as above; format: in vivo; settings: observed one hour after fertilization; * = no activity at the indicated concentration
Procedure: as §1

tumor = settings: cited from earlier work
tubulin = settings: cited from earlier work
[4] = tested on: cancer cell transplanted model animal; settings: cited from earlier work
[5] = tested on: cleavage division of Hemicentrotus pulcherrimus, Scaphechinus mirabilis and Temnopleurus toreumaticus; test: Comparison of cell division inhibitory activity across the sea urchin tests; format: in vivo, sea urchins; settings: ratio of MIC values
Procedure: as §1

[6] = tested on: dehydrogenase (cell-free extract); test: Amount of dehydrogenation of each substrate by enzyme (change in absorbance at 600 nm due to coenzyme); format: biochemical, Streptomyces albulus KO23; settings: relative value of change in absorbance at 600 nm, CFL set to 100; substrate 0.5 mM, 37° C.
bacteria = settings: Fukushima et al. 1973; cited from earlier work
pronuclear fusion = settings: Kobayashi et al. 1989; cited from earlier work
[7] = tested on: sea urchin embryo division; settings: Kanzaki et al. 1999; cited from earlier work

SMILES	MIC Hemicentrotus pulcherrimus [1]	MIC Scaphechinus mirabilis [2]	MIC Temnopleurus toreumaticus [3]	Amount of dehydrogenation [6]	also measured
C=CC(C)(C)c1[nH]cnc1C=C1NC(=O)C(Cc2ccccc2)NC1=O (single isomer, unassigned; (+)) [(+)-phenylahistin, 3-{[5-(1,1-dimethyl-2-propenyl)imidazole-4-yl]methylene}-6-benzylpiperazine-2,5-dione]	13 µg/mL (≈ 37.1 µM)	>13* μg/ml	6.3 µg/mL (≈ 18 µM)		
C=CC(C)(C)c1[nH]cnc1C=C1NC(=O)C(Cc2ccccc2)NC1=O (single isomer, unassigned; (-)) [(−)-phenylahistin, 3-{[5-(1,1-dimethyl-2-propenyl)imidazole-4-yl]methylene}-6-benzylpiperazine-2,5-dione]	0.39 µg/mL (≈ 1.11 µM)	1.6 µg/mL (≈ 4.57 µM)	0.2 µg/mL (≈ 0.571 µM)		antitumor activity relative to (+)-phenylahistin (tumor; times stronger than (+)-phenylahistin, approx.): 30-100 times; inhibition of the polymerization of tubulin (tubulin): inhibits the polymerization of tubulin; antitumor effect [4]: a certain degree of antitumor activity
O=c1[nH]/c(=C\c2c[nH]cn2)c(=O)[nH]/c1=C\c1ccccc1 [(Z,Z)-tetradehydro-CFH, Z-tetradehydrocyclophenylalanylhistidyl]	0.78 µg/mL (≈ 2.78 µM)	1.6 µg/mL (≈ 5.71 µM)	1.6 µg/mL (≈ 5.71 µM)		inhibitory activity compared with CFH [5]: ≥ 15 fold
O=C(O)CC1NC(=O)C(CC(=O)O)NC1=O (centres unmarked) [CDD]				14	
O=C(O)CCC1NC(=O)C(CCC(=O)O)NC1=O (centres unmarked) [CEE]				14	
O=C1N[C@@H](Cc2c[nH]cn2)C(=O)N[C@H]1Cc1ccccc1 [CFH, cyclophenylalanylhistidyl]	>25* μg/ml	>25* μg/ml	>25* μg/ml	44	
CC(C)C[C@@H]1NC(=O)[C@H](Cc2ccccc2)NC1=O [CFL]				100	
CC(C)CC1NC(=O)C(Cc2ccc(O)cc2)NC1=O (centres unmarked) [CLY]				14	
CSCCC1NC(=O)C(CCSC)NC1=O (centres unmarked) [CMM]				27	
CC(C)/C=c1\[nH]c(=O)/c(=C/c2ccccc2)[nH]c1=O [albonoursin, 3-(Z)-benzylidene-6-(Z)isobutylidene-2,5-piperazine dione]	6.3 µg/mL (≈ 24.6 µM)	>13* μg/ml	>25* μg/ml		antibacterial activity (bacteria): antibacterial activity; inhibition of pronuclear fusion (pronuclear fusion): acts to inhibit the pronuclear fusion; antitumor activity (tumor; Fukushima et al. 1973): has an antitumor activity
C=CC(C)(C)c1[nH]cnc1/C=c1\[nH]c(=O)/c(=C/c2ccccc2)[nH]c1=O [dehydrophenylahistin, (Z, Z)-dehydrophenylahistin]	0.00038 µg/mL (≈ 0.00109 µM)	0.0061 µg/mL (≈ 0.0175 µM)	0.0061 µg/mL (≈ 0.0175 µM)		
O=c1[nH]c(=Cc2ccccc2)c(=O)[nH]c1=Cc1ccccc1 [tetradehydrocyclo (Phe-Phe)]					sea urchin embryo division inhibitory activity [7]: exhibits sea urchin embryo division inhibitory activity
